Reference: ChEMBL document CHEMBL1201862, “PubChem BioAssay data set” (2004)
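These data come from cells grown in 96-well plates and exposed to compound for 48 hours at five concentrations. Abbreviation: GI50, concentration required for 50% inhibition of growth.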 Activity calls are given as the source filed them. Cut-off read from the data, not from the text of the source: active = GI50 up to about 1.1 µM and inactive = higher. Square brackets hold non-standard residues; d marks the D form. Peptide text beside a SMILES is read from it. pGlu = O=C1CC[C@@H](C(=O)O)N1; Thz = O=C(O)[C@@H]1CSCN1

Key:
Assay in all cases: NCI anticancer screen, dose series, 48 h
NCI/ADR-RES = system: NCI/ADR-RES
SNB-75 = system: SNB-75
LOX IMVI = system: LOX IMVI
OVCAR-8 = system: OVCAR-8
ACHN = system: ACHN
HCC 2998 = system: HCC 2998
MDA-MB-231 = system: MDA-MB-231
PC-3 = system: PC-3
NCI-H23 = system: NCI-H23
HCT-116 = system: HCT-116
NCI-H226 = system: NCI-H226
SF-268 = system: SF-268
MOLT-4 = system: MOLT-4
HCT-15 = system: HCT-15
CCRF-CEM = system: CCRF-CEM
SN12C = system: SN12C
K562 = system: K562
KM12 = system: KM12
786-0 = system: 786-0
UO-31 = system: UO-31

Compound	GI50 (NCI/ADR-RES)	GI50 (SNB-75)	GI50 (LOX IMVI)	GI50 (OVCAR-8)	GI50 (ACHN)	GI50 (HCC 2998)	GI50 (MDA-MB-231)	GI50 (PC-3)	GI50 (NCI-H23)	GI50 (HCT-116)	GI50 (NCI-H226)	GI50 (SF-268)	GI50 (MOLT-4)	GI50 (HCT-15)	GI50 (CCRF-CEM)	GI50 (SN12C)	GI50 (K562)	GI50 (KM12)	GI50 (786-0)	GI50 (UO-31)
CCC(=O)O[C@H]1CC[C@H]2[C@@H]3CCC4=C/C(=N/OC(=O)c5cccc6cc7ccccc7nc56)CC[C@]4(C)[C@H]3CC[C@]12C	60.4 µM (inactive)	83.8 µM (inactive)	33.4 µM (inactive)	42.3 µM (inactive)	> 100 µM (inactive)	> 100 µM (inactive)	> 100 µM (inactive)	29 µM (inactive)	52.8 µM (inactive)	36.1 µM (inactive)	> 100 µM (inactive)	> 100 µM (inactive)	> 100 µM (inactive)	55.7 µM	41.2 µM (inactive)	> 100 µM (inactive)	> 100 µM (inactive)	40.7 µM (inactive)	> 100 µM (inactive)	–
CCC(C)C(=O)OCC(=O)c1ccc(-c2ccccc2)cc1 (stereo not drawn)	76.9 µM (inactive)	80.7 µM (inactive)	34.7 µM (inactive)	79.3 µM (inactive)	> 100 µM (inactive)	> 100 µM (inactive)	78.9 µM (inactive)	63 µM (inactive)	63.7 µM (inactive)	68.7 µM (inactive)	–	41.4 µM (inactive)	46.9 µM (inactive)	18.1 µM	35 µM (inactive)	> 100 µM (inactive)	41 µM (inactive)	28.1 µM (inactive)	> 100 µM (inactive)	> 100 µM (inactive)
COc1ccc2c(c1)/C(=C\c1c(Cl)nc3sc(C)cn13)C(=O)N2	3.56 µM (inactive)	4.98 µM (inactive)	4.22 µM (inactive)	4.06 µM (inactive)	6.95 µM (inactive)	6.43 µM (inactive)	5.65 µM (inactive)	2.78 µM (inactive)	4.12 µM (inactive)	3.1 µM (inactive)	–	4.31 µM (inactive)	1.54 µM (inactive)	2.62 µM	1.19 µM (inactive)	7.05 µM (inactive)	0.521 µM (active)	1.71 µM (inactive)	4.22 µM (inactive)	5.45 µM (inactive)
Cc1cc(C)c(O)c(CN2CCN(C(C)C)CCN(C(C)C)CC2)c1	25.9 µM (inactive)	33.7 µM (inactive)	16.1 µM (inactive)	22.2 µM (inactive)	32.1 µM (inactive)	18.8 µM (inactive)	48.3 µM (inactive)	22.3 µM (inactive)	–	7.41 µM (inactive)	12 µM (inactive)	54.3 µM (inactive)	11.7 µM (inactive)	46.7 µM	19.1 µM (inactive)	27.5 µM (inactive)	17.9 µM (inactive)	17 µM (inactive)	42.9 µM (inactive)	18.6 µM (inactive)
COc1cc(Br)c(CC2C3=C(CCN2C(=O)C2CCC2)CC2(CC3)OCCO2)cc1O (stereo not drawn)	26.5 µM (inactive)	17.2 µM (inactive)	> 100 µM (inactive)	> 100 µM (inactive)	98.4 µM (inactive)	28.8 µM (inactive)	87.1 µM (inactive)	46.6 µM (inactive)	28.8 µM (inactive)	72.8 µM (inactive)	> 100 µM (inactive)	83.9 µM (inactive)	43.3 µM (inactive)	27.9 µM	52.6 µM (inactive)	84.1 µM (inactive)	31.6 µM (inactive)	50.6 µM (inactive)	89.9 µM (inactive)	–
COc1ccc(-c2oc3cc(OC)c(OC)c(O)c3c(=O)c2OC)cc1	80.5 µM (inactive)	15.4 µM (inactive)	53.5 µM (inactive)	43.2 µM (inactive)	33.3 µM (inactive)	> 100 µM (inactive)	17 µM (inactive)	39.8 µM (inactive)	–	> 100 µM (inactive)	48.9 µM (inactive)	24.5 µM (inactive)	> 100 µM (inactive)	40.5 µM	> 100 µM (inactive)	80.4 µM (inactive)	> 100 µM (inactive)	> 100 µM (inactive)	21.9 µM (inactive)	> 100 µM (inactive)
O=C1CC[C@@H](C(=O)N2CSC[C@H]2C(=O)O)N1 [PIDOTIMOD] ([pGlu]-[Thz]-OH)	> 100 µM (inactive)	> 100 µM (inactive)	> 100 µM (inactive)	> 100 µM (inactive)	> 100 µM (inactive)	> 100 µM (inactive)	> 100 µM (inactive)	> 100 µM (inactive)	> 100 µM (inactive)	–	> 100 µM (inactive)	> 100 µM (inactive)	> 100 µM (inactive)	> 100 µM	> 100 µM (inactive)	> 100 µM (inactive)	> 100 µM (inactive)	> 100 µM (inactive)	> 100 µM (inactive)	> 100 µM (inactive)
